Patent publication US20220062281A1, “INHIBITORS TO TARGET HIV-1 NEF-CD80/CD86 IN[…] THERAPEUTIC INTERVENTION” (priority 2018, published 2022)

Key:
[1] = biological target: Nef interaction with CD80 (Human immunodeficiency virus type 1 group M subtype B, UniProt P04601); test: ELISA primary screen: Nef binding to CD80 cytosolic peptide; design: species or system HIV-1; settings: CD80 pIC50 value, inhibition of Nef-CD80 binding
Experimental: (§1) Standard ELISA assay was used to validate the compounds as a primary screen. The basic steps of the assay are outlined in FIG. 1. The cytosolic peptides CD80, CD86 and CD74 are coated on a microplate, while CD80 and CD86 has higher binding capacity with the Nef protein, CD74 is non-specific peptide and is a peptide negative control for Nef binding. The coated plates are incubated overnight at 4° C. The plates were washed 5 times with PBS (0.02% Tween-20) before every step. After washing, the wells were blocked with 5% blotto and incubated at RT with shaking (650 rpm). The plates were washed 5 times with PBS (0.02%-tween20) after every step. Primary antibody […] anti-Nef raised in rabbit dissolved in 2.5% blotto (1:1000) were added and incubated on shaker for 1 hour at RT. Plate was washed and 100 μL anti rabbit raised in donkey dissolved in 2.5% blotto (1:11000) was added and incubated at RT for 45 min. Plate was washed with PBS and TMB substrate solution was added and incubated in dark for 5-10 min. The reaction was stopped with 1N H2SO4 and the absorbance was measured at 450 nm. Positive control (Nef) and Negative control (No peptide with Nef) were analysed for highest binding of Nef with peptide. The absorbance of the plates was measured at 450 nm.
(§2) A throughput screen was performed to pull out the actives. Standard quality control metrics like Z′ were used to qualify plates and Z′ scores were used to identify actives. The IC50 value of the compounds were further determined to evaluate the efficacy of the test compounds.
(§3) The IC50 values of the compounds have been illustrated in Table 1. […] Actives predominantly belong to compounds from Formula I, II and III with IC50s in nano or subnanomolar ranges were selected. Selected compounds were then screened in the cell-based assays systems.

[2] = tested on: Nef mediated T cell inactivation; test: T cell activation assay (IL-2 release, B-cell line co-cultured with T cell line); assay type: cell-based; settings: 100 μM, B-cell line pre-exposed 1 hr, Nef via protein delivery agent, IL-2 by ELISA after 3 hrs
Excerpt: The appropriate cell system was designed to mimic the biology of the said interactions. FIG. 4(A) represents the principle behind the activation of naïve T cells by the antigen presenting cells (APC), including dendritic cells, B cells, monocytes, macrophages. The activation is based on CD80/86 co-stimulation along with CD3 activation by major histocompatibility complex (MHC) as evidenced by an increase in IL-2 release from the activated T cells.
Representative compounds from the Formula I, II and III were tested in the functional T cell assay and the results are as presented in FIG. 5. B-cell line was pre-exposed to 100 μM of the 4 compounds for 1 hr. The cells were washed and then Nef was introduced via protein delivery agent. The cells were washed again and co-cultured with T cell line. The IL-2 release (as an indicator of activation) was measured by ELISA after 3 hrs. Addition of Nef reduced the T cell activation by more than 50%.

[3] = biological target: Nef interaction with CD86 (Human immunodeficiency virus type 1 group M subtype B, UniProt P04601); test: ELISA primary screen: Nef binding to CD86 cytosolic peptide; design: species or system HIV-1
Experimental: as §1, §2, §3

[4] = tested on: Nef mediated internalization of surface CD80/86 in B/monocyte cells; test: Cell-based phenotypic screen for downregulation of surface CD80/86 (flow cytometry); settings: 100 μM, pre-exposed 2 hrs, then infected with non-replicative retrovirus containing NEF; flow cytometry after 48-72 hrs
Excerpt: CD80 and CD86 are two major co-stimulatory cell surface proteins that are present on antigen presenting cells (APCs) and provide a co-stimulatory signal necessary for activation and survival of the naïve T cells. Both these proteins get down regulated during HIV infection via a Nef mediated pathway. It has been speculated that Nef ability to reduce CD80 and CD86 surface expression in infected cells can prevent the activation of naive T cells, necessary for an efficient recognition and elimination of the target cells. FIG. 2 illustrates that in the presence of the compounds of Formula I, Formula II or Formula III, the binding of Nef with CD80 and CD86 is inhibited thus increasing their expression. The increased expression would activate naïve T cells and aid in eliminating the infection.
Briefly monocyte/B cell lines were either delivered with Nef protein or exposed to replication deficient retrovirus and the levels of surface CD80/86 was evaluated by flow cytometry with/without compound treatment. The compounds were qualified based on the ability to reverse the down regulation of CD80/86 caused by the Nef protein. Similar quality checks were used in the secondary screen as in primary screen. Briefly, B/monocyte cells were preexposed to 100 μM of the 4 compounds for 2 hrs and then infected with non-replicative retrovirus containing NEF. The internalization of surface receptors were measured by flow cytometry after optimal infection (48-72 hrs).

| SMILES | IC50 [1] [nM] | reversal of Nef mediated inactivation of T cells (IL-2 release) [2] | IC50 [3] [nM] | reversal of Nef mediated internalization of CD80/86 [4] |
| --- | --- | --- | --- | --- |
| Cc1cc(C)n(-c2ncc(-c3ccc([N+](=O)[O-])cc3)cn2)n1 [Compound I1a, 2-(3,5-Dimethyl-1H-pyrazol-1-yl)-5-(4-nitrophenyl)pyrimidine] | 0.00234 |  |  |  |
| CN(C)c1ncc(-c2ccccc2)cn1 [Compound I3a, N,N-Dimethyl-5-phenylpyrimidin-2-amine] | 0.011 |  |  |  |
| FC(F)(F)c1ccc(-c2cnc(N3CCOCC3)nc2)cc1 [Compound I3b, 4-[5-(4-(Trifluoromethyl)phenyl)pyrimidin-2-yl]morpholine] | 0.129 | reversed the Nef mediated inactivation | 1.62 | reversal of Nef mediated internalization of CD80/86 |
| O=C(Oc1ccccc1)n1c(=S)oc2ccccc21 [II1, Phenyl 2-thioxobenzo[d]oxazole-3(2H)-carboxylate] | 0.0912 |  |  |  |
| Cc1ccc(OC(=O)Nc2ccc(Cc3ccc(NC(=O)Oc4ccc(C)cc4)cc3)cc2)cc1 [II2d, Di-p-tolyl [methylenebis(4,1-phenylene)]dicarbamate] | 10.5 |  | 513 |  |
| O=C(Nc1ccccc1F)Oc1ccc2ccccc2c1 [II3, Naphthalen-2-yl (2-fluorophenyl)carbamate] |  | reversed the Nef mediated inactivation | 0.0126 | reversal of Nef mediated internalization of CD80/86 |
| O=C(Nc1ccc(Cl)c(Cl)c1)Nc1cc([N+](=O)[O-])ccc1OC(=O)Nc1ccc(Cl)c(Cl)c1 [II4, 2-[3-(3,4-dichlorophenyl)ureido]-4-nitrophenyl (3,4-dichlorophenyl)carbamate] | 0.0275 |  | 0.275 |  |
| O=C(Oc1cccc(-c2nnco2)c1)N(c1ccccc1)c1ccccc1 [II5, 3-[(1,3,4-oxadiazol-2-yl)phenyl]diphenylcarbamate] | 0.00275 |  |  |  |
| Cc1ccc(S(=O)(=O)NNC(=O)c2ccccc2OC(=O)Nc2ccccc2)cc1 [II7, 2-[(2-Tosylhydrazine-1-carbonyl)phenyl]phenylcarbamate] | 0.0871 |  |  |  |
| CCCOC(=O)c1ccc(NC(=O)COc2cccc(C)c2)cc1 [III1e, Propyl 4-[2-(m-tolyloxy)acetamido]benzoate] | 2.34 |  |  |  |
| Cc1cc(C)cc(OCC(=O)Nc2ccc(C(=O)O)c(O)c2)c1 [III2a, 4-[2-(3,5-dimethylphenoxy)acetamido]-2-hydroxybenzoic acid] | 0.00447 | reversed the Nef mediated inactivation |  | reversal of Nef mediated internalization of CD80/86 |
| CC(Oc1ccccc1)C(=O)Nc1ccc(C(=O)O)cc1 (stereo not shown) [III2b, 4-(2-Phenoxypropanamido)benzoic acid] | 1.12 |  |  |  |
| CCOC(=O)c1ccc(NC(=O)C(C)(C)Oc2ccc(Cl)cc2)cc1 [III2c, Ethyl 4-[2-(4-chlorophenoxy)-2-methylpropanamido]benzoate] | 1.51 |  |  |  |
